We go through 19 compounds from patent publication US9206136B2, “Pyrazolyl-based carboxamides I” (Grünenthal GmbH, priority 2013, dated 2015).

For assay [1], the target named is T1, CRAC channel (endogenous SOC in HEK293 cells) (Homo sapiens, UniProt Q96D31).
T1 construct: host or cells: HEK293
As to the kind of experiment: HEK Calcium Influx Assay (FLIPR). In kind it is cell-based. The following applies: 10 μM compound, thapsigargin store depletion, Ca2+ signal 9.5-10 min post-administration, read-out: % inhib. [@ 10 μM] FLIPR. How it is done: Compounds of the invention have been tested for their effects on CRAC channels according to the following or similar procedures.
The effect of compounds of the invention on intracellular [Ca^2+] was tested in the HEK293 cell line (ECACC).
HEK293 cells were cultured in DMEM/F12/Glutamax (Gibco) containing 10% FCS (Gibco), and maintained at 37° C., 5% CO2. Cell were split twice a week [3·10^6 (Mon-Thu) and 1·10^6 (Thu-Mon) cells/50 ml medium in T-175 ZK culture flasks, respectively]. 24 hours pre-experiment, cells were seeded on 96 well plates (Poly-D-Lysine 96well Black/Clear Plate, BD Biocoat REF 356640) at a density of 40,000 cells/well in DMEM/F12 (Gibco) containing 10% FCS (Gibco), and maintained at 37° C., 5% CO2.
Prior to store-depletion, cell culture medium was removed and cells were loaded with the a Ca^2+-sensitive fluorescent dye comprised within the Calcium-4-assay kit (Molecular Devices) in nominally Ca^2+-free HBS buffer (140 mM NaCl, 4 mM KCl, 0.2 mM MgCl2, 11 mM D-glucose, and 10 mM HEPES, pH 7.4) according to manufacturer's instruction for 60 min at 37° C., 5% CO2.
Passive depletion of intracellular Ca^2+-stores was then triggered by employing the SERCA inhibitor thapsigargin (2 μM final) for 10 min in the dark (rt). To prevent immediate Ca^2+-entry via the activated Store-operated channels (SOCs), cells were maintained in Ca^2+-free HBS buffer comprising 100 μM EGTA during store-depletion.
Intracellular changes in [Ca^2+] were subsequently monitored with the FLIPR device (Molecular Devices). In brief, baseline imaging post-store depletion was allowed for 1 min before adjusting the extracellular buffer to 3 mM CaCl2. Increases in intracellular [Ca^2+] due to pre-activated SOC channels were monitored for 15 min until intracellular Ca^2+ levels had declined into a steady-state. Finally, compounds were administered and Ca^2+ signals were recorded for additional 10 min.
Inhibition of endogenous SOC in HEK293 cells was quantified employing the average Ca^2+ signal measured from 9.5-10 min post-administration. Zero percent inhibition (MAX) was defined as the Ca^2+ signal recorded from wells to which DMSO-only had been added instead of compound. Hundred percent inhibition (MIN) was defined as the signal obtained from wells in which cells haven't been treated with TG prior to Ca^2+ addition and to which DMSO-only had been added instead of compound. For routine IC50 determinations of compounds, 8 concentrations of a serial dilution (1:3.16) were tested, starting off from 10 μM. Reliable IC50's could consequently be determined only, if they were at least sub 2.5-3 μM.

The test system of assay [2] is Interleukin-2 (IL-2) production/release in Jurkat T cell line clone E6-1. As to the kind of experiment: Jurkat IL-2 Production Assay. In kind it is cell-based. The following applies: Homo sapiens; Jurkat T cells stimulated with 15 μg/ml PHA for 22 hours; IL-2 in supernatant (AlphaLisa). Here is the method: Jurkat IL-2 Production Assay
The effect of compounds of the invention on Interleukin-2 (IL-2) production/release was tested in the Jurkat T cell line (ECACC) clone E6-1.
Jurkat T cells were cultured in DMEM/F12/Glutamax (Gibco) containing 10% FCS (Gibco), and maintained at 37° C., 5% CO2. Cells were split twice a week [5·10^6 (Mon-Thu) and 1·10^7 (Thu-Mon) cells/50 ml medium in T-175 ZK culture flasks, respectively].
Prior to experiment, cells were seeded on 96 well plates (Cellstar 96 Well; Cat No. 655180, Greiner bio-one) at a density of 5·10^5 cells/well in DMEM/F12/Glutamax (Gibco) containing 10% FCS (Gibco), and incubated for 60 min at 37° C., 5% CO2. Subsequently, compounds were added and cells were allowed to incubate for 30 min at 37° C., 5% CO2. Cells were then stimulated with 15 μg/ml Phyto-hemagglutinin (PHA; Sigma) for 22 hours at 37° C., 5% CO2.
Before sampling of the supernatants, cells were spun down (200*g/5 min/RT). The amount of IL-2 released into the supernatant was quantified with the human IL-2 AlphaLisa kit (Perkin Elmer) according to manufacturer's instructions. Luminescence proximity measurements were carried out in the Synergy H4 reader (BioTek) employing the fluorescence setting of the reader (ex: 680/30 nm; em: 620/40 nm).
Inhibition of IL-Production/Release in/from Jurkat T Cells Cells was Quantified as Follows:
Zero percent inhibition (MAX) was defined as the [IL-2] determined in supernatants derived from cells to which PHA & DMSO-only had been added instead of compound. Hundred percent inhibition (MIN) was defined as the [IL-2] determined in supernatants derived from cells that had been pre-treated with 1 μM CyclosporineA (Sigma) before the addition of 15 μg/ml PHA.
For routine IC50 determinations of compounds, 8 concentrations of a serial dilution (1:3.16) were tested, starting off from 10 μM.

The structures appear in SMILES notation. Some results are limits rather than exact numbers.

T1 sequence (Q96D31 whole entry): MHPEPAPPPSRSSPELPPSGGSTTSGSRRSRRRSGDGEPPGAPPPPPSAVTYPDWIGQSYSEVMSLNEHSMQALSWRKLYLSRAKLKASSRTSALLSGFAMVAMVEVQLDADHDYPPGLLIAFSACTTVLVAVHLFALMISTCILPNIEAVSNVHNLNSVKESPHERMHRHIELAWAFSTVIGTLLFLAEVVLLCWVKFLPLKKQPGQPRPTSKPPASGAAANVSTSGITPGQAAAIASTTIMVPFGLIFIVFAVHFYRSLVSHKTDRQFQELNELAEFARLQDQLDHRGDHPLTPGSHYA

As to `Cc1ccc(-c2ccnc(N)c2)cc1-c1cc(C(=O)Nc2c(F)cccc2F)nn1C` [Example 20, 5-[5-(2-Amino-pyridin-4-yl)-2-methyl-phenyl]-N-(2,6-difluoro-phenyl)-1-methyl-1H-pyrazole-3-carboxylic acid amide], the inhibition at 10 µM in assay [1] lay within 50 to 70%. The IC50 in assay [2] was 0.5 to 1 µM.
With `Cc1ccc(C2CCOCC2)cc1-c1cc(C(=O)Nc2c(F)cccc2F)nn1C` [Example 22, N-(2,6-Difluoro-phenyl)-1-methyl-5-(2-methyl-5-tetrahydro-pyran-4-yl-phenyl)-1H-pyrazole-3-carboxylic acid amide], the inhibition at 10 µM in assay [1] was over 70%. Moreover, the IC50 in assay [2] fell in the range of 1 to 5 µM.
For the compound `Cc1ccc(-c2ncn(C)n2)cc1-c1cc(C(=O)Nc2c(F)cccc2F)nn1C` [Example 23, N-(2,6-Difluoro-phenyl)-1-methyl-5-[2-methyl-5-(1-methyl-1H-[1,2,4]triazol-3-yl)-phenyl]-1H-pyrazole-3-carboxylic acid amide], the inhibition at 10 µM in assay [1] was under 50%. In addition, the IC50 in assay [2] lay in the range of 1 to 5 µM.
In the same order, the values of `Cc1cc(-c2nccs2)ccc1-c1cc(C(=O)Nc2c(F)cccc2F)nn1C` [Example 24, N-(2,6-Difluoro-phenyl)-1-methyl-5-(2-methyl-4-thiazol-2-yl-phenyl)-1H-pyrazole-3-carboxylic acid amide] are over 70% and 1 to 5 µM.
For the compound `Cc1ccc(-c2nccs2)cc1-c1c(C)c(C(=O)Nc2c(F)cccc2F)nn1C` [Example 25, N-(2,6-Difluoro-phenyl)-1,4-dimethyl-5-(2-methyl-5-thiazol-2-yl-phenyl)-1H-pyrazole-3-carboxylic acid amide], the inhibition at 10 µM in assay [1] is under 50%. Further, in assay [2], the IC50 was 1 to 5 µM.
`Cc1ccc(-c2nccs2)cc1-c1c(C)c(C(=O)Nc2ccncc2F)nn1C` [Example 26, N-(3-Fluoro-pyridin-4-yl)-1,4-dimethyl-5-(2-methyl-5-thiazol-2-yl-phenyl)-1H-pyrazole-3-carboxylic acid amide]: the inhibition at 10 µM in assay [1] was under 50%. In assay [2], the IC50 lay in the range of 1 to 5 µM.
As for `Cc1c(C(=O)Nc2c(F)cccc2F)nn(C)c1-c1cccc(-c2nccs2)c1` [Example 27, N-(2,6-Difluoro-phenyl)-1,4-dimethyl-5-(3-thiazol-2-yl-phenyl)-1H-pyrazole-3-carboxylic acid amide], the inhibition at 10 µM in assay [1] was over 70%. Also, the IC50 in assay [2] was in the range of 0.5 to 1 µM.
With `Cc1nnc(-c2ccc(C)c(-c3cc(C(=O)Nc4c(F)cccc4F)nn3C)c2)[nH]1` [Example 28, N-(2,6-Difluoro-phenyl)-1-methyl-5-[2-methyl-5-(5-methyl-4H-[1,2,4]triazol-3-yl)-phenyl]-1H-pyrazole-3-carboxylic acid amide], the inhibition at 10 µM in assay [1] was under 50%. The IC50 in assay [2] is 1 to 5 µM.
With `Cn1nc(C(=O)Nc2c(F)cccc2F)cc1-c1cc(-c2ncco2)ccc1OC(F)(F)F` [Example 30, N-(2,6-Difluoro-phenyl)-1-methyl-5-[5-oxazol-2-yl-2-(trifluoromethyloxy)-phenyl]-1H-pyrazole-3-carboxylic acid amide], the inhibition at 10 µM in assay [1] was over 70%. Also, the IC50 in assay [2] was in the range of 0.5 to 1 µM.
In the same order, the values of `Cn1nc(C(=O)Nc2ccncc2F)cc1-c1cc(-c2ncco2)ccc1OC(F)(F)F` [Example 31, N-(3-Fluoro-pyridin-4-yl)-1-methyl-5-[5-oxazol-2-yl-2-(trifluoromethyloxy)-phenyl]-1H-pyrazole-3-carboxylic acid amide] are 50 to 70% and 1 to 5 µM.
On to `Cc1ccc(-c2nnc[nH]2)cc1-c1cc(C(=O)Nc2c(F)cccc2F)nn1C` [Example 32, N-(2,6-Difluoro-phenyl)-1-methyl-5-[2-methyl-5-(4H-[1,2,4]triazol-3-yl)-phenyl]-1H-pyrazole-3-carboxylic acid amide], for which the inhibition at 10 µM in assay [1] was under 50%. In addition, in assay [2], the IC50 was 1 to 5 µM.
As to `Cn1nc(C(=O)Nc2c(F)cncc2F)cc1-c1cc(-c2ncco2)ccc1OC(F)(F)F` [Example 33, N-(3,5-Difluoro-pyridin-4-yl)-1-methyl-5-[5-oxazol-2-yl-2-(trifluoro-methyloxy)-phenyl]-1H-pyrazole-3-carboxylic acid amide], in assay [1], the inhibition at 10 µM lay within 50 to 70%. The IC50 in assay [2] was 0.5 to 1 µM.
For the compound `COc1ccc(C2CC2)cc1-c1c(C)c(C(=O)Nc2c(F)cccc2F)nn1C` [Example 34, 5-(5-Cyclopropyl-2-methoxy-phenyl)-N-(2,6-difluoro-phenyl)-1,4-dimethyl-1H-pyrazole-3-carboxylic acid amide], the inhibition at 10 µM in assay [1] is over 70%. Besides, the IC50 in assay [2] lay within 0.5 to 1 µM.
For `COc1ccc(C2CC2)cc1-c1c(C)c(C(=O)Nc2c(F)cncc2F)nn1C` [Example 35, 5-(5-Cyclopropyl-2-methoxy-phenyl)-N-(3,5-difluoro-pyridin-4-yl)-1,4-dimethyl-1H-pyrazole-3-carboxylic acid amide] the same measures were over 70% and 0.5 to 1 µM.
`Cn1nc(C(=O)Nc2c(F)cccc2F)cc1-c1cc(C2CC2)ccc1OC(F)(F)F` [Example 36, 5-[5-Cyclopropyl-2-(trifluoromethyloxy)-phenyl]-N-(2,6-difluoro-phenyl)-1-methyl-1H-pyrazole-3-carboxylic acid amide]: the inhibition at 10 µM in assay [1] is over 70%. For the same compound, in assay [2], the IC50 was under 0.5 µM.
`Cn1nc(C(=O)Nc2c(F)cncc2F)cc1-c1cc(C2CC2)ccc1OC(F)(F)F` [Example 37, 5-[5-Cyclopropyl-2-(trifluoromethyloxy)-phenyl]-N-(3,5-difluoro-pyridin-4-yl)-1-methyl-1H-pyrazole-3-carboxylic acid amide]: in assay [1], the inhibition at 10 µM is over 70%. For the same compound, the IC50 in assay [2] was under 0.5 µM.
With `Cn1nc(C(=O)Nc2ccncc2F)cc1-c1cc(C2CC2)ccc1OC(F)(F)F` [Example 38, 5-[5-Cyclopropyl-2-(trifluoromethyloxy)-phenyl]-N-(3-fluoro-pyridin-4-yl)-1-methyl-1H-pyrazole-3-carboxylic acid amide], the inhibition at 10 µM in assay [1] was over 70%. Further, the IC50 in assay [2] lay within 1 to 5 µM.
Take `Cn1nc(C(=O)Nc2c(F)cccc2F)cc1-c1ccc(C2CC2)cc1OC(F)(F)F` [Example 39, 5-[4-Cyclopropyl-2-(trifluoromethyloxy)-phenyl]-N-(2,6-difluoro-phenyl)-1-methyl-1H-pyrazole-3-carboxylic acid amide]: the inhibition at 10 µM in assay [1] is over 70%. The IC50 in assay [2] is under 0.5 µM.
Regarding `Cn1nc(C(=O)Nc2c(F)cncc2F)cc1-c1ccc(C2CC2)cc1OC(F)(F)F` [Example 40, 5-[4-Cyclopropyl-2-(trifluoromethyloxy)-phenyl]-N-(3,5-difluoro-pyridin-4-yl)-1-methyl-1H-pyrazole-3-carboxylic acid amide], in assay [1], the inhibition at 10 µM was over 70%. In addition, the IC50 in assay [2] is under 0.5 µM.
